Measured values published in patent US20210206758A1, “NAPHTHYRIDINES AS INTEGRIN ANTAGONISTS” (GlaxoSmithKline Intellectual Property Development Limited, priority 2016, published 2021).

Assays:
Type in all cases: cell-based
αvβ6 = biological target: T1, αvβ6 (Homo sapiens, UniProt P06756+P18564); experiment: Cell adhesion assay, K562-αvβ6 (LAP-b1); conditions: K562-αvβ6 cells, ligand LAP-b1, 2 mM MgCl2
T1 construct: expressed in transfected cells; host or cells: K562
Description: (§1) Reagents and methods utilised are as described [Ludbrook et al, Biochem. J. 2003, 369, 311 and Macdonald et al. ACS Med. Chem. Lett. 2014, 5, 1207-1212 for αvβ8 assay), with the following points of clarification. The following cell lines are used, with ligands in brackets: K562-αvβ3 (LAP-b1), K562-αvβ5 (Vitronectin), K562-αvβ6 (LAP-b1), K562-αvβ8 (LAP-b1), A549-αvβ1 (LAP-b1). The divalent cation used to facilitate adhesion is 2 mM MgCl2. Adhesion is quantified by cell labelling with the fluorescent dye BCECF-AM (Life Technologies), where cell suspensions at 3×10^6 cells/mL are incubated with 0.33 uL/mL of 30 mM BCECF-AM at 37° C. for 10 minutes, then 50 μL/well are dispensed into the 96-well assay plate. At the assay conclusion cells that adhered are lysed using 50 μL/well of 0.5% Triton X-100 in H2O to release fluorescence. Fluorescence intensity is detected using an Envision® plate reader (Perkin Elmer). For active antagonists in the assay, data is fitted to a 4 parameter logistic equation for IC50 determinations.

αvβ1 = biological target: T2, αvβ1 (Homo sapiens, UniProt P05556+P06756); experiment: Cell adhesion assay, A549-αvβ1 (LAP-b1); conditions: A549-αvβ1 cells, ligand LAP-b1, 2 mM MgCl2
T2 construct: host or cells: A549
T2 sequence (P06756 31-889 limits assumed): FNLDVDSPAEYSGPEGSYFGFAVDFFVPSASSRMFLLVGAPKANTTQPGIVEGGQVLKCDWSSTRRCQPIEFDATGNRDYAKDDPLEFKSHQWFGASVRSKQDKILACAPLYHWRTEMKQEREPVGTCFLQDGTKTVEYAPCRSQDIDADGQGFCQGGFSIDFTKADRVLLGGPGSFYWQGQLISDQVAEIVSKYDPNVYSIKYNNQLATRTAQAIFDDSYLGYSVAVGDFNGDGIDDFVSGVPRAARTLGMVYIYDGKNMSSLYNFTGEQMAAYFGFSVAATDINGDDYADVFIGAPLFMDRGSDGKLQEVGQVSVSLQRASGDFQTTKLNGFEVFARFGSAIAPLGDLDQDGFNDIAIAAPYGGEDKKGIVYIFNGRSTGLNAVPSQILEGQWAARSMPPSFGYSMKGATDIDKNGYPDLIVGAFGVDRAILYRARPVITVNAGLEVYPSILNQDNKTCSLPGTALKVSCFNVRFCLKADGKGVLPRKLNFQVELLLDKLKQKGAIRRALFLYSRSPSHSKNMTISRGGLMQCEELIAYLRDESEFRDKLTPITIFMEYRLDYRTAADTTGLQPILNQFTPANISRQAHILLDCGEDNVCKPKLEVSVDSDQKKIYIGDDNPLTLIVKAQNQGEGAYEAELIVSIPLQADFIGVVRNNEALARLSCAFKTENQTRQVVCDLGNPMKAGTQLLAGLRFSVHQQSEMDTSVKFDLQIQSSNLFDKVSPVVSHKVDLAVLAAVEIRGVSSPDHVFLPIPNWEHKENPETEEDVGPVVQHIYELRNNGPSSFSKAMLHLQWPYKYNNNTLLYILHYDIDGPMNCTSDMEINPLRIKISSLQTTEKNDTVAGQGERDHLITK
T2 sequence (P06756 891-1048 partner limits assumed): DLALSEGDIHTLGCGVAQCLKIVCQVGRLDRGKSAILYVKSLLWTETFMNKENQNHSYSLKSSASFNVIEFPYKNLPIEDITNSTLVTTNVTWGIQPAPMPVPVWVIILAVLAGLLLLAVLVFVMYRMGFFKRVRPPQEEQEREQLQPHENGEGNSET
T2 sequence (P05556 21-798): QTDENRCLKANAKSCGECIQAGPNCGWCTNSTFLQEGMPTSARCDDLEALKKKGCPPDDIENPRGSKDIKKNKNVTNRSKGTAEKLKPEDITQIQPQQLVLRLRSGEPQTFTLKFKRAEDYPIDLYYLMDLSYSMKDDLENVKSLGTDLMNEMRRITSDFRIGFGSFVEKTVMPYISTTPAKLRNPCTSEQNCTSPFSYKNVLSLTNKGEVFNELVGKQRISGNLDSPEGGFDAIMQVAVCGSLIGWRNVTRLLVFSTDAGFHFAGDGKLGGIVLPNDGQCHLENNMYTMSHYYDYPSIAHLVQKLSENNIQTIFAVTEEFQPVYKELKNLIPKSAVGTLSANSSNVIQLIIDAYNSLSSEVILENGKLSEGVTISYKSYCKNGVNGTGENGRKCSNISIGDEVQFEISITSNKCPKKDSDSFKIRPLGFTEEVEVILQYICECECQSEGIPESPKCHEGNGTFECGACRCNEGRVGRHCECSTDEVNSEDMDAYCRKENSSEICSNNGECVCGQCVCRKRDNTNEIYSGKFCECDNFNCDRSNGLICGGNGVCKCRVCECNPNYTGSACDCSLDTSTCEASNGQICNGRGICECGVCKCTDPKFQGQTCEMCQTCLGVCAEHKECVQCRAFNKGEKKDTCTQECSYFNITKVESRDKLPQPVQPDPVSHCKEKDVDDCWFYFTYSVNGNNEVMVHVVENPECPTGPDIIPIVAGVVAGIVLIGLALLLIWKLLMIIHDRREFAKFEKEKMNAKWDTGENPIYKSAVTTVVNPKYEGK
Description: as §1

αvβ3 = biological target: T3, αvβ3 (Homo sapiens, UniProt P05106+P06756); experiment: Cell adhesion assay, K562-αvβ3 (LAP-b1); conditions: K562-αvβ3 cells, ligand LAP-b1, 2 mM MgCl2
T3 construct: expressed in transfected cells; host or cells: K562
T3 sequence (P06756 31-889 limits assumed): as the sequence (P06756 31-889 limits assumed) above
T3 sequence (P06756 891-1048 partner limits assumed): as the sequence (P06756 891-1048 partner limits assumed) above
T3 sequence (P05106 27-788): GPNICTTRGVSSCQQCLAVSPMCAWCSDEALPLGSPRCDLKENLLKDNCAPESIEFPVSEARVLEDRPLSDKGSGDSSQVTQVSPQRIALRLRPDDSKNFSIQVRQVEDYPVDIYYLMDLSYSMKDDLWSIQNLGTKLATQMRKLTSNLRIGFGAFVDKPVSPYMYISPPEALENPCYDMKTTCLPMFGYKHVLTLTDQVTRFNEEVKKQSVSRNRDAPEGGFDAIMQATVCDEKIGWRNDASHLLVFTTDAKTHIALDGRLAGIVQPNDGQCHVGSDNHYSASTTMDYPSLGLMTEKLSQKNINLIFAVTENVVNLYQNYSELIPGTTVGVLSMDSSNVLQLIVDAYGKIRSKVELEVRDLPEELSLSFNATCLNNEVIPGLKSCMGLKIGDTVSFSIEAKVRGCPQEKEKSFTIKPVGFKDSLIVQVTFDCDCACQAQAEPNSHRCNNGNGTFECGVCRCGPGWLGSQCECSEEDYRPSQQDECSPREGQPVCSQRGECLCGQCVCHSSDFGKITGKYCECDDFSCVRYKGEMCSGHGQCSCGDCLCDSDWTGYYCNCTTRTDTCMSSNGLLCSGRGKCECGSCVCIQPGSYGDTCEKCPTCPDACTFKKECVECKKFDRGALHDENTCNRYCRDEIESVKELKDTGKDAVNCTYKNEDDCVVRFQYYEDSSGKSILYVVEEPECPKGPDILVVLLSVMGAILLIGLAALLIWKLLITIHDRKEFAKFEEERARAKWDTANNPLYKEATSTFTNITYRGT
Description: as §1

αvβ5 = biological target: T4, αvβ5 (Homo sapiens, UniProt P06756+P18084); experiment: Cell adhesion assay, K562-αvβ5 (Vitronectin); conditions: K562-αvβ5 cells, ligand Vitronectin, 2 mM MgCl2
T4 construct: expressed in transfected cells; host or cells: K562
T4 sequence (P06756 31-889 limits assumed): as the sequence (P06756 31-889 limits assumed) above
T4 sequence (P06756 891-1048 partner limits assumed): as the sequence (P06756 891-1048 partner limits assumed) above
T4 sequence (P18084 24-799): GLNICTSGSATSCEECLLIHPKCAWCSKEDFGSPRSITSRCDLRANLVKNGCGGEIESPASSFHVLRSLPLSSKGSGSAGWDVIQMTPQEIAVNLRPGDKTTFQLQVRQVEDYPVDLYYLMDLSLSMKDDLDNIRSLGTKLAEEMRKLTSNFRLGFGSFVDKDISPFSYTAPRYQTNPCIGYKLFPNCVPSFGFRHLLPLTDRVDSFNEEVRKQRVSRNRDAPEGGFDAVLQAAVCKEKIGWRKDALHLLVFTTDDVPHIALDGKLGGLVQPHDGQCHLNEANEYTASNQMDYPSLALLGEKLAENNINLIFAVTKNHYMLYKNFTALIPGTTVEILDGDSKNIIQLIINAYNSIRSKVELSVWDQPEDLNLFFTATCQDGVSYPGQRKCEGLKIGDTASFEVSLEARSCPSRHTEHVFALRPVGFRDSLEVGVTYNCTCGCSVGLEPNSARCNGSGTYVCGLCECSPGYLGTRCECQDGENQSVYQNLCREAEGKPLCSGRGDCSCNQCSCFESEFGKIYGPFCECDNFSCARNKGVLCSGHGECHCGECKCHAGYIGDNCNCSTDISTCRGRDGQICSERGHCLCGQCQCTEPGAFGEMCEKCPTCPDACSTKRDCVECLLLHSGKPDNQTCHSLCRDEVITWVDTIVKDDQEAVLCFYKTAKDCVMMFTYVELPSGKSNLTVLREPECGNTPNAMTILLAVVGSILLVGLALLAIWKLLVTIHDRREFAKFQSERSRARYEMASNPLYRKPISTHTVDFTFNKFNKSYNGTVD
Description: as §1

αvβ8 = biological target: T5, αvβ8 (Homo sapiens, UniProt P06756+P26012); experiment: Cell adhesion assay, K562-αvβ8 (LAP-b1); conditions: K562-αvβ8 cells, ligand LAP-b1, 2 mM MgCl2
T5 construct: expressed in transfected cells; host or cells: K562
Description: as §1

T1 sequence (P06756 31-889 limits assumed): as the sequence (P06756 31-889 limits assumed) above
T1 sequence (P06756 891-1048 partner limits assumed): as the sequence (P06756 891-1048 partner limits assumed) above
T1 sequence (P18564 22-788): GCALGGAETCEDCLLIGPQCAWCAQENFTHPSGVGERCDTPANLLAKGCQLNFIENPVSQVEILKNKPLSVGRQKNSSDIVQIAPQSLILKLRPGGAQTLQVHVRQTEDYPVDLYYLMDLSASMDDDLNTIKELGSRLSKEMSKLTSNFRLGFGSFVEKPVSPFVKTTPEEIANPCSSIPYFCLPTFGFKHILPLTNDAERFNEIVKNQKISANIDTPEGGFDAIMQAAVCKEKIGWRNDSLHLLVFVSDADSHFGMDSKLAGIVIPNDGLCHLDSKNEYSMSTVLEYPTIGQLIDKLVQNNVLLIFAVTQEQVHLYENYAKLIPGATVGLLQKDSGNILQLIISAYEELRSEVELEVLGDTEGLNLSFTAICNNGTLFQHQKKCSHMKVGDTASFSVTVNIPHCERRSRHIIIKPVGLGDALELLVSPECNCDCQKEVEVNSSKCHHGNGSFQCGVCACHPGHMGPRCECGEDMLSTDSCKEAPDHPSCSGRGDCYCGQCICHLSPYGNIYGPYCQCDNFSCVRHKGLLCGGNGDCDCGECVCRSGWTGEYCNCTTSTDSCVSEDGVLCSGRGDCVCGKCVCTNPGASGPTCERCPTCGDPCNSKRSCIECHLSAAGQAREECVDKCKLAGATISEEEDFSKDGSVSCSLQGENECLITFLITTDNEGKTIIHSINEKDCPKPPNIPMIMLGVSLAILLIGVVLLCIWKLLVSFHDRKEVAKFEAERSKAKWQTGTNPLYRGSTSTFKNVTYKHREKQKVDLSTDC

O=C(O)/C=C\C(=O)O.O=C(O)C[C@H](CN1CC[C@@](F)(CCc2ccc3c(n2)NCCC3)C1)c1cccc(O[C@H]2CCOC2)c1 [Example 19, (S)-4-((S)-3-Fluoro-3-(2-(5,6,7,8-tetrahydro-1,8-naphthyridin-2-yl)ethyl)pyrrolidin-1-yl)-3-(3-(((S)-tetrahydrofuran-3-yl)oxy)phenyl)butanoic acid (1:1) maleate salt]
αvβ6 pIC50 (mean affinity, cell Adhesion Assay) (αvβ6): 8.2 | αvβ1 pIC50 (mean affinity, cell Adhesion Assay) (αvβ1): 6.6 | αvβ3 pIC50 (mean affinity, cell Adhesion Assay) (αvβ3): 7.3 | αvβ5 pIC50 (mean affinity, cell Adhesion Assay) (αvβ5): 7.5 | αvβ8 pIC50 (mean affinity, cell Adhesion Assay) (αvβ8): 7.4
